Reference: ChEMBL document CHEMBL1201862, “PubChem BioAssay data set” (2004)
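Five concentrations, 48 hours, 96-well plates. GI50 marks 50% less growth.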 Calls of active or inactive are those of the source. No stated cut-off is given here; in the data, active = GI50 up to about 1.1 µM and inactive = higher. Square brackets hold non-standard residues; d marks the D form. Peptide text beside a SMILES is read from it. * marks the point of attachment. ξ: configuration not given here. ξD = NC(CC(=O)O)C(=O)O; Ac3c = NC1(C(=O)O)CC1; Boc = CC(C)(C)OC(=O)*; OtBu = CC(C)(C)O*

Key:
Assay in all cases: NCI anticancer screen, dose series, 48 h
OVCAR-3 = test system: OVCAR-3
MDA-MB-435 = test system: MDA-MB-435
RPMI-8226 = test system: RPMI-8226
SK-MEL-5 = test system: SK-MEL-5
UO-31 = test system: UO-31
SF-268 = test system: SF-268
OVCAR-4 = test system: OVCAR-4
MOLT-4 = test system: MOLT-4
HCC 2998 = test system: HCC 2998
MDA-N = test system: MDA-N
SW-620 = test system: SW-620
SNB-19 = test system: SNB-19
SK-MEL-28 = test system: SK-MEL-28
NCI-H23 = test system: NCI-H23
COLO 205 = test system: COLO 205
ACHN = test system: ACHN
NCI-H226 = test system: NCI-H226
UACC-257 = test system: UACC-257
HCT-116 = test system: HCT-116

Compound	GI50 (OVCAR-3)	GI50 (MDA-MB-435)	GI50 (RPMI-8226)	GI50 (SK-MEL-5)	GI50 (UO-31)	GI50 (SF-268)	GI50 (OVCAR-4)	GI50 (MOLT-4)	GI50 (HCC 2998)	GI50 (MDA-N)	GI50 (SW-620)	GI50 (SNB-19)	GI50 (SK-MEL-28)	GI50 (NCI-H23)	GI50 (COLO 205)	GI50 (ACHN)	GI50 (NCI-H226)	GI50 (UACC-257)	GI50 (HCT-116)
CCCCCCCCCC(O)CC(=O)c1c(O)cccc1O (stereo not given)	21.9 µM (inactive)	25.9 µM (inactive)	20.6 µM (inactive)	19 µM (inactive)	19.3 µM (inactive)	17.7 µM (inactive)	16.7 µM (inactive)	19.5 µM (inactive)	12.4 µM (inactive)	22 µM (inactive)	39.5 µM (inactive)	29.9 µM (inactive)	41.5 µM (inactive)	22 µM (inactive)	30.1 µM (inactive)	24.1 µM (inactive)	17.4 µM (inactive)	19.5 µM (inactive)	20.1 µM (inactive)
COC(=O)Cc1c([C@@H]2Nc3ccccc3[C@H]2CC(=O)OC)[nH]c2ccccc12	18.3 µM (inactive)	26.1 µM (inactive)	14.9 µM (inactive)	7.98 µM (inactive)	16.6 µM (inactive)	31.1 µM (inactive)	23 µM (inactive)	10.9 µM (inactive)	45.1 µM (inactive)	28.7 µM (inactive)	46.8 µM (inactive)	55.6 µM (inactive)	28.3 µM (inactive)	27 µM (inactive)	16 µM (inactive)	36.6 µM (inactive)	71.8 µM (inactive)	24.9 µM (inactive)	38.9 µM (inactive)
COc1cc(CCC(=O)O)c2cc3ccccc3cc2c1O	21.4 µM (inactive)	15.3 µM (inactive)	12.4 µM (inactive)	15.1 µM (inactive)	17.8 µM (inactive)	19.6 µM (inactive)	15.6 µM (inactive)	8.89 µM (inactive)	29 µM (inactive)	17.3 µM (inactive)	21.4 µM (inactive)	23.5 µM (inactive)	22.4 µM (inactive)	19.1 µM (inactive)	18 µM (inactive)	17.3 µM (inactive)	32.6 µM (inactive)	16.1 µM (inactive)	17.2 µM (inactive)
COc1cc2c(cc1OCc1ccccc1)NC(=S)[C@@H]1CCCN1C2=S	43.1 µM (inactive)	> 100 µM (inactive)	> 100 µM (inactive)	62.8 µM (inactive)	> 100 µM (inactive)	> 100 µM (inactive)	4.09 µM (inactive)	> 100 µM (inactive)	> 100 µM (inactive)	> 100 µM (inactive)	> 100 µM (inactive)	> 100 µM (inactive)	> 100 µM (inactive)	> 100 µM (inactive)	> 100 µM (inactive)	> 100 µM (inactive)	93.5 µM (inactive)	> 100 µM (inactive)	> 100 µM (inactive)
CCC(C)C1NC(=O)C(NC(=O)C(CC(C)C)N(C)C(=O)[C@@H]2C=CCN2C(=O)[C@H](C)O)C(C)OC(=O)[C@H](Cc2ccc(OC)cc2)N(C)C(=O)[C@@H]2CCCN2C(=O)[C@H](CC(C)C)NC(=O)C(C)C(=O)[C@H](C(C)C)OC(=O)CC1O (stereo not given in full)	0.00393 µM (active)	0.00277 µM (active)	0.00267 µM (active)	0.000914 µM (active)	0.0138 µM (active)	0.00243 µM (active)	0.00234 µM (active)	0.00147 µM (active)	0.00306 µM (active)	0.00293 µM (active)	0.00308 µM (active)	0.00374 µM (active)	0.00138 µM (active)	0.00184 µM (active)	0.00143 µM (active)	0.00402 µM (active)	< 0.01 µM (active)	0.00311 µM (active)	0.00103 µM (active)
Cc1ccc(S(=O)(=O)n2cncc2CO)cc1	> 100 µM (inactive)	> 100 µM (inactive)	> 100 µM (inactive)	> 100 µM (inactive)	> 100 µM (inactive)	> 100 µM (inactive)	> 100 µM (inactive)	> 100 µM (inactive)	> 100 µM (inactive)	> 100 µM (inactive)	> 100 µM (inactive)	> 100 µM (inactive)	> 100 µM (inactive)	> 100 µM (inactive)	> 100 µM (inactive)	> 100 µM (inactive)	> 100 µM (inactive)	> 100 µM (inactive)	> 100 µM (inactive)
COC(=O)C1(NC(=O)C(CC(=O)OC(C)(C)C)NC(=O)OC(C)(C)C)CC1 (stereo not given) (Boc-[ξD](OtBu)-[Ac3c]-OMe)	> 100 µM (inactive)	> 100 µM (inactive)	> 100 µM (inactive)	> 100 µM (inactive)	> 100 µM (inactive)	> 100 µM (inactive)	> 100 µM (inactive)	> 100 µM (inactive)	> 100 µM (inactive)	> 100 µM (inactive)	> 100 µM (inactive)	> 100 µM (inactive)	> 100 µM (inactive)	> 100 µM (inactive)	> 100 µM (inactive)	> 100 µM (inactive)	> 100 µM (inactive)	> 100 µM (inactive)	> 100 µM (inactive)
COC1CC(OC2CCC3(C)C(=CCC4C3C(OC(C)=O)C(OC(=O)CC(C)C)C3(C)C(C(C)=O)CCC43O)C2)OC(C)C1OC1CC(OC)C(OC2CC(OC)C(OC3OC(C)C(O)C(OC)C3O)C(C)O2)C(C)O1 (stereo not given)	43.9 µM (inactive)	25.1 µM (inactive)	17.7 µM (inactive)	18.7 µM (inactive)	26.1 µM (inactive)	54.1 µM (inactive)	39.5 µM (inactive)	23.8 µM (inactive)	24.4 µM (inactive)	32.1 µM (inactive)	31.3 µM (inactive)	86.5 µM (inactive)	36 µM (inactive)	34 µM (inactive)	22 µM (inactive)	31.6 µM (inactive)	30.5 µM (inactive)	28.8 µM (inactive)	26.7 µM (inactive)
CCOC(=O)c1nc2c(nc1C(=O)OCC)C(=O)c1ccccc1C2=O	0.37 µM (active)	0.246 µM (active)	0.753 µM (active)	0.407 µM (active)	0.333 µM (active)	0.818 µM (active)	0.637 µM (active)	1.71 µM (inactive)	1.35 µM (inactive)	0.248 µM (active)	0.881 µM (active)	0.446 µM (active)	1.03 µM (active)	0.31 µM (active)	1.82 µM (inactive)	0.757 µM (active)	0.569 µM (active)	0.431 µM (active)	0.875 µM (active)
Nc1nc(Cl)c(/N=N/c2ccc(Cl)cc2)c(NCC2(CO)CCC(CCc3ccccc3)C2)n1 (stereo not given)	11 µM (inactive)	9.98 µM (inactive)	12.1 µM (inactive)	1.37 µM (inactive)	2.1 µM (inactive)	6.22 µM (inactive)	1.5 µM (inactive)	1.29 µM (inactive)	5.97 µM (inactive)	11.4 µM (inactive)	3.92 µM (inactive)	19.5 µM (inactive)	14.2 µM (inactive)	1.26 µM (inactive)	4.86 µM (inactive)	5.97 µM (inactive)	1.91 µM (inactive)	10.6 µM (inactive)	6.11 µM (inactive)
